In brackets after ≈: the same amount, converted by molar mass. Where a SMILES comes first, the peptide text is derived from it. Bridges are numbered along the chain shown (N, C = ends). [ ]: non-standard residue; d: D form. The star is where a group is joined. Heptanoyl(6-Me) = CC(C)CCCCC(=O)*; Octanoyl(6-Me) = CCC(C)CCCCC(=O)*; Dab = NCC[C@H](N)C(=O)O; Ava = NCCCCC(=O)O
Legend:
Escherichia coli = assay: Antimicrobial activity against Escherichia coli; format: functional
Salmonella enterica = assay: Antimicrobial activity against Salmonella enterica; format: functional
Pseudomonas aeruginosa = assay: Antimicrobial activity against Pseudomonas aeruginosa; format: functional, organism-based

| Molecule | MIC (Escherichia coli) | IC50 (Pseudomonas aeruginosa) [µg/mL] | further results |
| --- | --- | --- | --- |
| CCC(C)CCCCC(=O)N[C@@H](CCN)C(=O)N[C@H](C(=O)N[C@@H](CO)C(=O)N[C@H]1CCNC(=O)[C@H]([C@@H](C)O)NC(=O)[C@H](CCN)NC(=O)[C@H](CCN)NC(=O)[C@H](CC(C)C)NC(=O)[C@@H](CC(C)C)NC(=O)[C@H](CCN)NC1=O)[C@@H](C)O (stereo partly specified) | 0.8 µg/mL | – | – |
| CC(C)C[C@@H]1NC(=O)[C@@H](CC(C)C)NC(=O)[C@H](CCN)NC(=O)[C@@H](NC(=O)[C@H](CCN)NC(=O)[C@@H](NC(=O)[C@H](CCN)NC(=O)CCCc2cc3ccc4cccc5ccc(c2)c3c45)[C@@H](C)O)CCNC(=O)[C@H]([C@@H](C)O)NC(=O)[C@H](CCN)NC(=O)[C@H](CCN)NC1=O | 2 µM | – | MIC (Salmonella enterica): 2 µM (≈ 2.6 µg/mL); MIC (Pseudomonas aeruginosa): 1 µM (≈ 1.3 µg/mL) |
| CCCCC(=O)N[C@@H](CCN)C(=O)N[C@@H](C(=O)N[C@@H](CCN)C(=O)N[C@H]1CCNC(=O)[C@@H]([C@@H](C)O)NC(=O)[C@H](CCN)NC(=O)[C@H](CCN)NC(=O)[C@H](CC(C)C)NC(=O)[C@@H](Cc2ccccc2)NC(=O)[C@H](CCN)NC1=O)[C@@H](C)O | 11 µg/mL | – | – |
| CCC(C)CCCCC(=O)N[C@@H](CCCCN)C(=O)N[C@H](C(=O)N[C@@H](CCCCN)C(=O)N[C@H]1CCNC(=O)[C@H]([C@@H](C)O)NC(=O)[C@H](CCCCN)NC(=O)[C@H](CCCCN)NC(=O)[C@H](CC(C)C)NC(=O)[C@@H](Cc2ccccc2)NC(=O)[C@H](CCCCN)NC1=O)[C@@H](C)O (stereo partly specified) | 0.2 µg/mL | – | – |
| CCC(C)CCCCC(=O)N[C@@H](CCN)C(=O)N[C@H](C(=O)N[C@@H](CCN)C(=O)N[C@H]1CCNC(=O)[C@H]([C@@H](C)O)NC(=O)[C@H](CCN)NC(=O)[C@H](CCN)NC(=O)[C@H]([C@@H](C)CC)NC(=O)[C@@H](CC(C)C)NC(=O)[C@H](CCN)NC1=O)[C@@H](C)O (stereo partly specified) | 0.4 µg/mL | – | – |
| CCC(C)CCCCC(=O)N[C@@H](CCNC=O)C(=O)N[C@H](C(=O)N[C@@H](CCN)C(=O)N[C@H]1CCNC(=O)[C@H]([C@@H](C)O)NC(=O)[C@H](CCN)NC(=O)[C@H](CCN)NC(=O)[C@H](CC(C)C)NC(=O)[C@@H](Cc2ccccc2)NC(=O)[C@H](CCN)NC1=O)[C@@H](C)O (stereo partly specified) | – | 7.6 (≈ 6.17 µM) | – |
| CCC(C)CCCCC(=O)N[C@@H](CCNC=O)C(=O)N[C@H](C(=O)N[C@@H](CCNC=O)C(=O)N[C@H]1CCNC(=O)[C@H]([C@@H](C)O)NC(=O)[C@H](CCN)NC(=O)[C@H](CCN)NC(=O)[C@H](CC(C)C)NC(=O)[C@@H](Cc2ccccc2)NC(=O)[C@H](CCN)NC1=O)[C@@H](C)O (stereo partly specified) | – | 4.2 (≈ 3.33 µM) | – |
| CCC(C)CCCCC(=O)N[C@@H](CCNC=O)C(=O)N[C@H](C(=O)N[C@@H](CCNC=O)C(=O)N[C@H]1CCNC(=O)[C@H]([C@@H](C)O)NC(=O)[C@H](CCN)NC(=O)[C@H](CCNC=O)NC(=O)[C@H](CC(C)C)NC(=O)[C@@H](Cc2ccccc2)NC(=O)[C@H](CCN)NC1=O)[C@@H](C)O (stereo partly specified) | – | 6.1 (≈ 4.74 µM) | – |
| CCC(C)CCCCC(=O)N[C@@H](CCNC=O)C(=O)N[C@H](C(=O)N[C@@H](CCNC=O)C(=O)N[C@H]1CCNC(=O)[C@H]([C@@H](C)O)NC(=O)[C@H](CCNC=O)NC(=O)[C@H](CCNC=O)NC(=O)[C@H](CC(C)C)NC(=O)[C@@H](Cc2ccccc2)NC(=O)[C@H](CCN)NC1=O)[C@@H](C)O (stereo partly specified) | – | 42 (≈ 31.9 µM) | – |
| CCC(C)CCCCC(=O)N[C@@H](CCNC=O)C(=O)N[C@H](C(=O)N[C@@H](CCNC=O)C(=O)N[C@H]1CCNC(=O)[C@H]([C@@H](C)O)NC(=O)[C@H](CCNC=O)NC(=O)[C@H](CCNC=O)NC(=O)[C@H](CC(C)C)NC(=O)[C@@H](Cc2ccccc2)NC(=O)[C@H](CCNC=O)NC1=O)[C@@H](C)O (stereo partly specified) | – | 60 (≈ 44.7 µM) | – |
| CCC(C)CCCCC(=O)N[C@@H](CCNC(N)=O)C(=O)N[C@H](C(=O)N[C@@H](CCNC(N)=O)C(=O)N[C@H]1CCNC(=O)[C@H]([C@@H](C)O)NC(=O)[C@H](CCNC(N)=O)NC(=O)[C@H](CCNC(N)=O)NC(=O)[C@H](CC(C)C)NC(=O)[C@@H](Cc2ccccc2)NC(=O)[C@H](CCN)NC1=O)[C@@H](C)O (stereo partly specified) | – | 80 (≈ 58.2 µM) | – |
| CCCC1CCC(C(=O)N[C@@H](CCN)C(=O)N[C@H](C(=O)N[C@@H](CCN)C(=O)N[C@H]2CCNC(=O)[C@H]([C@@H](C)O)NC(=O)[C@H](CCN)NC(=O)[C@H](CCN)NC(=O)[C@H](CC(C)C)NC(=O)[C@@H](Cc3ccccc3)NC(=O)[C@H](CCN)NC2=O)[C@@H](C)O)CC1 (stereo partly specified) | 4 µM | – | MIC (Salmonella enterica): 4 µM (≈ 4.86 µg/mL); MIC (Pseudomonas aeruginosa): 2 µM (≈ 2.43 µg/mL) |
| CCCC1CCC(C(=O)N[C@@H](CCN)C(=O)N[C@H](C(=O)N[C@@H](CCN)C(=O)N[C@H]2CCNC(=O)[C@H]([C@@H](C)O)NC(=O)[C@H](CCN)NC(=O)[C@H](CCN)NC(=O)[C@H](CC(C)C)NC(=O)[C@@H](CC(C)C)NC(=O)[C@H](CCN)NC2=O)[C@@H](C)O)CC1 (stereo partly specified) | 8 µM | – | MIC (Salmonella enterica): 8 µM (≈ 9.45 µg/mL); MIC (Pseudomonas aeruginosa): 2 µM (≈ 2.36 µg/mL) |
| CCC(C)CCCCCOC(=O)[C@H](CCCCN)NC(=O)C(NC(=O)[C@H](CCCCN)NC(=O)[C@H](CCCCN)NC(=O)[C@@H](NC(=O)[C@H](CCCCN)NC(=O)[C@@H](CCCCN)NC(=O)[C@@H](N)CC(C)C)[C@@H](C)O)[C@@H](C)O (single isomer, unassigned) | 50 µg/mL | – | – |
| CCC(C)CCCCCOC(=O)[C@H](CCCCN)NC(=O)C(NC(=O)[C@H](CCCCN)NC(=O)[C@H](CCCCN)NC(=O)[C@@H](NC(=O)[C@H](CCCCN)NC(=O)[C@@H](CCCCN)NC(=O)[C@H](CC(C)C)NC(=O)[C@@H](CCCCN)NC(=O)[C@@H](N)CC(C)C)[C@@H](C)O)[C@@H](C)O (single isomer, unassigned) | 100 µg/mL | – | – |
| CCC(C)CCCCC(=O)N[C@@H](CCN)C(=O)N[C@H](C(=O)N[C@@H](CCN)C(=O)N[C@H]1CCNC(=O)[C@H]([C@@H](C)O)NC(=O)[C@H](CCN)NC(=O)[C@H](CCN)NC(=O)CCCCNC(=O)[C@H](CCN)NC1=O)[C@@H](C)O (stereo partly specified) ({Octanoyl(6-Me)}-[Dab]T[Dab][Dab][Dab][Ava][Dab][Dab]T; lactam 4-C) | 500 µg/mL | – | – |
| CCC(C)CCCCC(=O)N[C@@H](CCNc1ccc([N+](=O)[O-])cc1[N+](=O)[O-])C(=O)N[C@@H](C(=O)N[C@@H](CCNc1ccc([N+](=O)[O-])cc1[N+](=O)[O-])C(=O)N[C@H]1CCNC(=O)[C@@H]([C@@H](C)O)NC(=O)[C@H](CCNc2ccc([N+](=O)[O-])cc2[N+](=O)[O-])NC(=O)[C@H](CCNc2ccc([N+](=O)[O-])cc2[N+](=O)[O-])NC(=O)[C@H](CC(C)C)NC(=O)[C@@H](Cc2ccccc2)NC(=O)[C@H](CCN)NC1=O)[C@@H](C)O (stereo partly specified) [2,4-DINITROPHENYL POLYMYXIN B] | – | 73 (≈ 39.1 µM) | – |
| CCCC(=O)N[C@@H](CCN)C(=O)N[C@@H](C(=O)N[C@@H](CCN)C(=O)N[C@H]1CCNC(=O)[C@@H]([C@@H](C)O)NC(=O)[C@H](CCN)NC(=O)[C@H](CCN)NC(=O)[C@H](CC(C)C)NC(=O)[C@@H](Cc2ccccc2)NC(=O)[C@H](CCN)NC1=O)[C@@H](C)O [BUTANOYL FATTY ACYL POLYMYXIN B] | 23 µg/mL | – | – |
| CC(C)CCCCC(=O)N[C@@H](CCN)C(=O)N[C@H](C(=O)N[C@@H](CCN)C(=O)N[C@H]1CCNC(=O)[C@H]([C@@H](C)O)NC(=O)[C@H](CCN)NC(=O)[C@H](CCN)NC(=O)[C@H](CC(C)C)NC(=O)[C@@H](CC(C)C)NC(=O)[C@H](CCN)NC1=O)[C@@H](C)O [COLISTIN B] ({Heptanoyl(6-Me)}-[Dab]T[Dab][Dab][Dab][dL]L[Dab][Dab]T; lactam 4-C) | 1.6 µg/mL | – | – |
| CCC(C)CCCCC(=O)N[C@@H](CC=O)C(=O)N[C@H](C(=O)N[C@@H](CC=O)C(=O)N[C@H]1CCNC(=O)[C@H]([C@@H](C)O)NC(=O)[C@H](CC=O)NC(=O)[C@H](CC=O)NC(=O)[C@H](CC(C)C)NC(=O)[C@@H](Cc2ccccc2)NC(=O)[C@H](CC=O)NC1=O)[C@@H](C)O (stereo partly specified) [Desamino Polymyxin B] | – | 70 (≈ 58.4 µM) | – |
| CCCCCC(=O)N[C@@H](CCN)C(=O)N[C@@H](C(=O)N[C@@H](CCN)C(=O)N[C@H]1CCNC(=O)[C@@H]([C@@H](C)O)NC(=O)[C@H](CCN)NC(=O)[C@H](CCN)NC(=O)[C@H](CC(C)C)NC(=O)[C@@H](Cc2ccccc2)NC(=O)[C@H](CCN)NC1=O)[C@@H](C)O [HEXANOYL FATTY ACYL POLYMYXIN B] | 0.7 µg/mL | – | – |
| CCC(C)CCCCC(=O)N[C@@H](CCNCc1c(COP(=O)(O)O)cnc(C)c1O)C(=O)N[C@@H](C(=O)N[C@@H](CCNCc1c(COP(=O)(O)O)cnc(C)c1O)C(=O)N[C@H]1CCNC(=O)[C@@H]([C@@H](C)O)NC(=O)[C@H](CCNCc2c(COP(=O)(O)O)cnc(C)c2O)NC(=O)[C@H](CCNCc2c(COP(=O)(O)O)cnc(C)c2O)NC(=O)[C@H](CC(C)C)NC(=O)[C@@H](Cc2ccccc2)NC(=O)[C@H](CCN)NC1=O)[C@@H](C)O (stereo partly specified) [PYRIDOXAL POLYMYXIN B] | – | 10.7 (≈ 5.03 µM) | – |
| CCC(C)CCCCC(=O)N[C@@H](CCNc1cc(N)c([N+](=O)[O-])cc1[N+](=O)[O-])C(=O)N[C@@H](C(=O)N[C@@H](CCNc1cc(N)c([N+](=O)[O-])cc1[N+](=O)[O-])C(=O)N[C@H]1CCNC(=O)[C@@H]([C@@H](C)O)NC(=O)[C@H](CCNc2cc(N)c([N+](=O)[O-])cc2[N+](=O)[O-])NC(=O)[C@H](CCNc2cc(N)c([N+](=O)[O-])cc2[N+](=O)[O-])NC(=O)[C@H](CC(C)C)NC(=O)[C@@H](Cc2ccccc2)NC(=O)[C@H](CCN)NC1=O)[C@@H](C)O (stereo partly specified) [TETRA 5-AMINO-2,4-DINITROPHENYL POLYMYXIN B] | – | 68 (≈ 35.3 µM) | – |
| CCC(C)CCCCC(=O)N[C@@H](CCNC(=O)n1ccc2ccccc21)C(=O)N[C@@H](C(=O)N[C@@H](CCNC(=O)n1ccc2ccccc21)C(=O)N[C@H]1CCNC(=O)[C@@H]([C@@H](C)O)NC(=O)[C@H](CCNC(=O)n2ccc3ccccc32)NC(=O)[C@H](CCNC(=O)n2ccc3ccccc32)NC(=O)[C@H](CC(C)C)NC(=O)[C@@H](Cc2ccccc2)NC(=O)[C@H](CCN)NC1=O)[C@@H](C)O (stereo partly specified) [TETRA INDOLE ALDEHYDE POLYMYXIN B] | – | 10.2 (≈ 5.74 µM) | – |
| COLISTIN | 0.8 µg/mL | – | – |

— ChEMBL document CHEMBL1156251, “Structure--activity relationships of polymyxin antibiotics” (J Med Chem, 2010)
